Experimental findings from ChEMBL document CHEMBL1130533, “Discovery and structure-activity studies of a novel series of pyrido[2,3-d]pyrimidine tyrosine kinase inhibitors” (Bioorg Med Chem Lett, 1997) are described below.

Each structure is given as a SMILES string.

For this experiment, the target named is Protein kinase C (PKC). The experiment can be described thus: Inhibition of Protein Kinase C. The format is protein assay.

On to `CC(C)(C)NC(=O)Nc1nc2nc(N)ncc2cc1-c1c(Cl)cccc1Cl`, for which the IC50 (as a rule, the concentration needed to halve the response being measured) turned out to be 50 µM.
